Test results taken from US9629861B2, “Compositions and methods for treating bacterial infections using ceftaroline” (Forest Laboratories Holdings Limited, priority 2009, dated 2017).
Like-named read-outs stand apart in the source and are kept apart here. Each block holds one molecule with its values, some of them ahead of it.

Assays:
Aqueous solubility = assay type: physicochemical; conditions: with L-arginine, depending on the molarity of the solution
Excerpt: In further embodiments, the compositions may comprise L-arginine.

[1] = Pharmacokinetics of ceftaroline after IV infusion of ceftaroline fosamil in adults with normal renal function; design: species or system human; conditions: in vivo
Excerpt: The standard deviation is shown in brackets.

CYP1A1 = target: T1, CYP1A1 (Homo sapiens, UniProt P04798); test: CYP inhibition in human liver microsomes; assay type: in vitro ADME
T1 construct: In vitro studies in human liver microsomes; from tissue; host or cells: human liver microsomes

CYP1A2 [2] = target: CYP1A2 (Homo sapiens, UniProt P05177); assay type: in vitro ADME; conditions: human liver microsomes
CYP2A6 = target: T2, CYP2A6 (Homo sapiens, UniProt P11509); test: CYP inhibition in human liver microsomes; assay type: in vitro ADME
T2 construct: In vitro studies in human liver microsomes; from tissue; host or cells: human liver microsomes

CYP2B6 [3] = target: T3, CYP2B6 (Homo sapiens, UniProt P20813); test: CYP inhibition in human liver microsomes; assay type: in vitro ADME
T3 construct: In vitro studies in human liver microsomes; from tissue; host or cells: human liver microsomes

CYP2C8 [4] = target: T4, CYP2C8 (Homo sapiens, UniProt P10632); test: CYP inhibition in human liver microsomes; assay type: in vitro ADME
T4 construct: In vitro studies in human liver microsomes; from tissue; host or cells: human liver microsomes

CYP2C9 [5] = target: T5, CYP2C9 (Homo sapiens, UniProt P11712); test: CYP inhibition in human liver microsomes; assay type: in vitro ADME
T5 construct: In vitro studies in human liver microsomes; from tissue; host or cells: human liver microsomes

CYP2C19 [6] = target: T6, CYP2C19 (Homo sapiens, UniProt P33261); test: CYP inhibition in human liver microsomes; assay type: in vitro ADME
T6 construct: In vitro studies in human liver microsomes; from tissue; host or cells: human liver microsomes

CYP2D6 = target: T7, CYP2D6 (Homo sapiens, UniProt P10635); test: CYP inhibition in human liver microsomes; assay type: in vitro ADME
T7 construct: In vitro studies in human liver microsomes; from tissue; host or cells: human liver microsomes

CYP2E1 = target: T8, CYP2E1 (Homo sapiens, UniProt P05181); test: CYP inhibition in human liver microsomes; assay type: in vitro ADME
T8 construct: In vitro studies in human liver microsomes; from tissue; host or cells: human liver microsomes

CYP3A4 = target: T9, CYP3A4 (Homo sapiens, UniProt P08684); test: CYP inhibition in human liver microsomes; assay type: in vitro ADME
T9 construct: In vitro studies in human liver microsomes; from tissue; host or cells: human liver microsomes

CYP2B6 [7] = test: CYP induction in human hepatocytes; assay type: in vitro ADME
CYP2C9 [8] = test: CYP induction in human hepatocytes; assay type: in vitro ADME
CYP3A4/5 = test: CYP induction in human hepatocytes; assay type: in vitro ADME
[9] = tested on: complicated skin and skin structure infections (cSSSI); test: Phase 3 cSSSI Study 2; assay type: in vivo, human; conditions: versus vancomycin/aztreonam
Procedure: A total of 1396 adults with clinically documented complicated skin and skin structure infections (cSSSI) were enrolled in two randomized, multi-center, multinational, double-blind, studies comparing 600 mg ceftaroline fosamil administered intravenously over 1 hour every 12 hours to vancomycin plus aztreonam [1 g vancomycin administered intravenously over 1 hour followed by 1 g aztreonam administered intravenously over 1 hour every 12 hours]. Patients with cSSSI (deep/extensive cellulitis, a major abscess, a wound infection [surgical or traumatic], infected insect bites, burns or ulcers, lower extremity infection in patients with diabetes mellitus or peripheral vascular disease), were enrolled in the studies. Treatment duration was 5 to 14 days. A switch to oral therapy was not allowed. The Modified Intent-to-Treat (MITT) population included all patients who received any amount of study drug according to their randomized treatment group.
The primary efficacy endpoint was clinical response at the Test of Cure (TOC) visit in the co-primary CE and MITT populations (Table 2). […] In a subgroup analysis (CE population), the comparative clinical cure rates between the ceftaroline group and the vancomycin plus aztreonam group were not affected by age, gender, race, ethnicity, or weight.

[10] = tested on: Community-Acquired Bacterial Pneumonia (CABP); test: Two Phase 3 studies in CABP, integrated; assay type: in vivo, human; conditions: versus ceftriaxone, integrated CABP studies
Procedure: (§1) In both treatment groups of CABP Study 1, two doses of oral clarithromycin (500 mg q12h), were administered as adjunctive therapy starting on Study Day 1. No adjunctive macrolide therapy was used in CABP Study 2. Patients with new or progressive pulmonary infiltrate(s) on chest radiography and clinical signs and symptoms consistent with CABP with the need for hospitalization and IV therapy were enrolled in the studies. Treatment duration was 5 to 7 days. A switch to oral therapy was not allowed. The Modified Intent-to-Treat Efficacy (MITTE) population included all patients who received any amount of study drug according to their randomized treatment group and were in PORT (Pneumonia Outcomes Research Team) Risk Class III or IV.
The primary efficacy endpoint was the clinical response at the Test of Cure (TOC) visit in the co-primary CE and MITTE populations (Table 4). In a subgroup analysis (CE population), the comparative clinical cure rates between the ceftaroline group and the ceftriaxone group were not affected by age, gender, race, ethnicity, or weight.

[11] = tested on: Community-Acquired Bacterial Pneumonia (CABP); test: Phase 3 CABP Study 1 (Example 5, adjunctive clarithromycin); assay type: in vivo, human; conditions: versus ceftriaxone, CABP Study 1
Procedure: as §1
(§2) The primary efficacy endpoint was the clinical response at the Test of Cure (TOC) visit in the co-primary CE and MITTE populations (Table 4).
(§3) The secondary objective of the study was to evaluate the following: the clinical response at end-of-therapy (EOT); the microbiological favorable outcome rate at TOC; the overall (clinical and radiographic) success rate at TOC; the clinical and microbiological response by pathogen at TOC; clinical relapse at late follow-up (LFU); microbiological reinfection/recurrence at LFU; and safety.
(§4) The primary efficacy outcome measures were the per-subject clinical cure rate at TOC in the CE and MITTE Populations. Subjects were considered clinically cured at TOC if they had total resolution of all signs and symptoms of the baseline infection, or improvement of the infection such that no further antimicrobial therapy was necessary.
(§5) Non-inferiority was concluded if the lower limit of the 95% CI was higher than −10%.

[12] = tested on: Community-Acquired Bacterial Pneumonia (CABP); test: Phase 3 CABP Study 2 (Example 4, no adjunctive macrolide); assay type: in vivo, human; conditions: for Treatment Difference in clinical cure rate at TOC: versus ceftriaxone, CABP Study 2
Procedure: as §1, §2
as §3, with “objectives” for “objective”, “were” for “was”, “following:” for “following: the”
as §4, with “The following criteria were used for evaluation: The primary” for “The primary”, “rate at test-of-cure (TOC) in the” for “rate at TOC in the”
as §5

[13] = Safety, four pooled controlled comparative Phase 3 studies (two cSSSI, two CABP); assay type: in vivo, human; conditions: pooled Phase 3 studies
Procedure: Ceftaroline fosamil was evaluated in four controlled comparative Phase 3 clinical studies (two in cSSSI and two in CABP).

CYP1A2 [14] = conditions: human hepatocytes
CYP2C8 [15] = conditions: human hepatocytes
CYP2C19 [16] = conditions: human hepatocytes
[17] = tested on: Haemophilus parainfluenzae; conditions: ME patients with CABP
[18] = Example 4
[19] = Example 5
[20] = Safety population, listed as ceftriaxone

T7 sequence (P10635 whole entry): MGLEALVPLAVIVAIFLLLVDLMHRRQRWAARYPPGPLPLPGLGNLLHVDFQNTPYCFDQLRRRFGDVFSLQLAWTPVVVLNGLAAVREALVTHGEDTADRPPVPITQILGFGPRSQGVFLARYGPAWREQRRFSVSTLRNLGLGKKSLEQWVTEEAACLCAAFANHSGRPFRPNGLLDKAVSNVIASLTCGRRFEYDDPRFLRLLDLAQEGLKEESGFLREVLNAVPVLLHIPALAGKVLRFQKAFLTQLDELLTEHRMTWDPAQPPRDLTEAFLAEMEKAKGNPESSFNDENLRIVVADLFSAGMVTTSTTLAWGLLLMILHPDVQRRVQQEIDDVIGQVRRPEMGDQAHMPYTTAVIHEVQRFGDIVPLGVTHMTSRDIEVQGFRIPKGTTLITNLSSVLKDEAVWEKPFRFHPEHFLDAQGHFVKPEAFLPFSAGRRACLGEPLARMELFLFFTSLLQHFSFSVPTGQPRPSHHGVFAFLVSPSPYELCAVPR
T3 sequence (P20813 whole entry): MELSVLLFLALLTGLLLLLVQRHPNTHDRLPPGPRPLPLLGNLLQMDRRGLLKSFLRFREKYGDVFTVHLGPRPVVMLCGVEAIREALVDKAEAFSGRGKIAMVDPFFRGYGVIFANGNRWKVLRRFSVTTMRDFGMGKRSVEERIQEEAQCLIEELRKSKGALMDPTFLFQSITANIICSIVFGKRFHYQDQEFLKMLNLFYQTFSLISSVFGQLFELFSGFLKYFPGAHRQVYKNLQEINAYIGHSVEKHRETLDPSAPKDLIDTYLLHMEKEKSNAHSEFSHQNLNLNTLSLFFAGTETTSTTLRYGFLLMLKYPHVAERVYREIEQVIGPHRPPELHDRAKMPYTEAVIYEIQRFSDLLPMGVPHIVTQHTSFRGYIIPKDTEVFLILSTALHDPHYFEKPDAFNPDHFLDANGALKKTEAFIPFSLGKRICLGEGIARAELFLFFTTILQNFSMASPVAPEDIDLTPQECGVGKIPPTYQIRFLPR
T1 sequence (P04798 whole entry): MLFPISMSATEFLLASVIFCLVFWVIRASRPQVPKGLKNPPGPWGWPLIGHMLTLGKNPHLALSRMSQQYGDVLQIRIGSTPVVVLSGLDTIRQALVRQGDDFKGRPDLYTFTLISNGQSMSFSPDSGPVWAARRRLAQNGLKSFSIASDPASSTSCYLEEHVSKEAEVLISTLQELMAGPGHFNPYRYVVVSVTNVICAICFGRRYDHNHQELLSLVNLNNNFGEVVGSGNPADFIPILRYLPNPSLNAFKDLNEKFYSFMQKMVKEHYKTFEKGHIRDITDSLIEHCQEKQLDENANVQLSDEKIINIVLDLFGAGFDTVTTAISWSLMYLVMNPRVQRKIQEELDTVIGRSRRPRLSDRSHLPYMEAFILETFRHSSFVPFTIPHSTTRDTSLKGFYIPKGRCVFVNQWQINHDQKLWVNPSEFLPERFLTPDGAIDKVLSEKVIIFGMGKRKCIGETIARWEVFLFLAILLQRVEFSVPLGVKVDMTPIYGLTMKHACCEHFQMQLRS
T6 sequence (P33261 whole entry): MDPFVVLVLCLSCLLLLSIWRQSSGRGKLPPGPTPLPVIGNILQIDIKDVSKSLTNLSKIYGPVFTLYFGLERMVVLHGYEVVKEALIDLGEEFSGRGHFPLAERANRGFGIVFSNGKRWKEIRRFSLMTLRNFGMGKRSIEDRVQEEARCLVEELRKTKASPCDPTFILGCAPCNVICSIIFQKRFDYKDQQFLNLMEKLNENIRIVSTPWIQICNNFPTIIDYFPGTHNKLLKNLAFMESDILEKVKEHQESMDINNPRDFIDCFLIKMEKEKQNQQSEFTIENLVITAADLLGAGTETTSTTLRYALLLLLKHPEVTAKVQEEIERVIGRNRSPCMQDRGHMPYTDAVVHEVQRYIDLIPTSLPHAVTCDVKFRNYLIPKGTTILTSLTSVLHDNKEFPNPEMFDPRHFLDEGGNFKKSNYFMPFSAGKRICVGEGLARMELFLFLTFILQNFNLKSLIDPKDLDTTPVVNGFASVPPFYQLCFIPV
T4 sequence (P10632 whole entry): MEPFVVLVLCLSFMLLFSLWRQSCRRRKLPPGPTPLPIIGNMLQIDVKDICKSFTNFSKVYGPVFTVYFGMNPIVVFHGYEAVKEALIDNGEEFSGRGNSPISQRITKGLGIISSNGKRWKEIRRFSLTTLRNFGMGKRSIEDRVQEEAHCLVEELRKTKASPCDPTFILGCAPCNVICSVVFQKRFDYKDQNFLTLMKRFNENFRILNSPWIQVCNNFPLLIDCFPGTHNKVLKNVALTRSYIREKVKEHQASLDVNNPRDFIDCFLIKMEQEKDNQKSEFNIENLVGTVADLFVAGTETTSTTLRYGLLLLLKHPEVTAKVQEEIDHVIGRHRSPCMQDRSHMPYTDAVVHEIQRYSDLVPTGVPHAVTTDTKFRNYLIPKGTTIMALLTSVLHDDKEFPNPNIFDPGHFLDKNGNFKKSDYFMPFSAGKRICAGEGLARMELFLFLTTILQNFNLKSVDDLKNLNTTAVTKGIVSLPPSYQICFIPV
T9 sequence (P08684 whole entry): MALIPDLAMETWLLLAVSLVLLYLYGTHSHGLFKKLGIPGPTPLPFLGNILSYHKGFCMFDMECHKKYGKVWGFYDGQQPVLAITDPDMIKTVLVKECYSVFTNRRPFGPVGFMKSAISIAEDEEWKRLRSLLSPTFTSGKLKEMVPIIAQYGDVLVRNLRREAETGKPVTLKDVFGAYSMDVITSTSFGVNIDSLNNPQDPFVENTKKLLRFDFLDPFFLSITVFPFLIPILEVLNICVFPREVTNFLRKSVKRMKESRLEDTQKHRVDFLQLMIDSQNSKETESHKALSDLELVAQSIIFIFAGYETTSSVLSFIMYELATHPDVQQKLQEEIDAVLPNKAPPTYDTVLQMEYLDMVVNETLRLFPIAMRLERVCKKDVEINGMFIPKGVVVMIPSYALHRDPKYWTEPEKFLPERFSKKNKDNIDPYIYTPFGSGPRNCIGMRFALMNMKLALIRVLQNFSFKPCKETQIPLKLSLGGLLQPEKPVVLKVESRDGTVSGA
T8 sequence (P05181 whole entry): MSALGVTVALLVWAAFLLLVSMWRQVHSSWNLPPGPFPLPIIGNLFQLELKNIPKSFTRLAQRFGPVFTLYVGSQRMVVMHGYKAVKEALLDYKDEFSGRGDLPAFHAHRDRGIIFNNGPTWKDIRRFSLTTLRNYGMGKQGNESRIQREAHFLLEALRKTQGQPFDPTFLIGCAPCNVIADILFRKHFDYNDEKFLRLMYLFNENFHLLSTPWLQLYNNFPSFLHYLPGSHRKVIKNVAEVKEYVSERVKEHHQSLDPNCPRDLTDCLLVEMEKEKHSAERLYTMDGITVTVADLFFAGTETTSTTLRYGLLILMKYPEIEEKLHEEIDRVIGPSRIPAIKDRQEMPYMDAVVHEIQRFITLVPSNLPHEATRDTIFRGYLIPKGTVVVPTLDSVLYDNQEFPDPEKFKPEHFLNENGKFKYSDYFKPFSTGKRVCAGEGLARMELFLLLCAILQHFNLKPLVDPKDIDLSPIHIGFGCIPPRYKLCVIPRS
T2 sequence (P11509 whole entry): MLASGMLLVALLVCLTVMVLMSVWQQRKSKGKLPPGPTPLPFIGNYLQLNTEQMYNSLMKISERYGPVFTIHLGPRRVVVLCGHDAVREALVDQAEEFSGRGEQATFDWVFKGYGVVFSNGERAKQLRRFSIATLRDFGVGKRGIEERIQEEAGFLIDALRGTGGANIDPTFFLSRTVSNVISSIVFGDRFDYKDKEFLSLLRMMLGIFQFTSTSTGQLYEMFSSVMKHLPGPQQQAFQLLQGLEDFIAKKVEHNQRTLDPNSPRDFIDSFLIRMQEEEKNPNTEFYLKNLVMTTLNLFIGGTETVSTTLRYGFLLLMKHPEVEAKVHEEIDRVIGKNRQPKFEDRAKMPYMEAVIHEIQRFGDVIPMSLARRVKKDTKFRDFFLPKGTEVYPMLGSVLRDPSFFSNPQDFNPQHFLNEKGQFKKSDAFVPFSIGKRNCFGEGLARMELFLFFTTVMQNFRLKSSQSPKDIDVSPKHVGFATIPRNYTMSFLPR
T5 sequence (P11712 whole entry): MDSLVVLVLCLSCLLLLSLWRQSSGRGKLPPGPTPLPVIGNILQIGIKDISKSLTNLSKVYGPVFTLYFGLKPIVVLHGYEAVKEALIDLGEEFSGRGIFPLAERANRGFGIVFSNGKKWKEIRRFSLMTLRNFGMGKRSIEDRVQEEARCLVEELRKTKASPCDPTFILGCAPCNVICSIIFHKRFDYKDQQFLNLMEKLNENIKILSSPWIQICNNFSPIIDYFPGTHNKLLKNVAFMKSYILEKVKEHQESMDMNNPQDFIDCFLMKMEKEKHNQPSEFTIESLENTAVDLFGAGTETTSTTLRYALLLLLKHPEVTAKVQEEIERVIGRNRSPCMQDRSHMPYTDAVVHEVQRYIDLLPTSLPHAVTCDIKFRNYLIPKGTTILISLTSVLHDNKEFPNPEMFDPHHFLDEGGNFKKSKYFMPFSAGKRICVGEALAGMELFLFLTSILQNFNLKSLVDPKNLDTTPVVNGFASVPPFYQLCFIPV
CYP1A2 (Homo sapiens, UniProt P05177), sequence (P05177 whole entry): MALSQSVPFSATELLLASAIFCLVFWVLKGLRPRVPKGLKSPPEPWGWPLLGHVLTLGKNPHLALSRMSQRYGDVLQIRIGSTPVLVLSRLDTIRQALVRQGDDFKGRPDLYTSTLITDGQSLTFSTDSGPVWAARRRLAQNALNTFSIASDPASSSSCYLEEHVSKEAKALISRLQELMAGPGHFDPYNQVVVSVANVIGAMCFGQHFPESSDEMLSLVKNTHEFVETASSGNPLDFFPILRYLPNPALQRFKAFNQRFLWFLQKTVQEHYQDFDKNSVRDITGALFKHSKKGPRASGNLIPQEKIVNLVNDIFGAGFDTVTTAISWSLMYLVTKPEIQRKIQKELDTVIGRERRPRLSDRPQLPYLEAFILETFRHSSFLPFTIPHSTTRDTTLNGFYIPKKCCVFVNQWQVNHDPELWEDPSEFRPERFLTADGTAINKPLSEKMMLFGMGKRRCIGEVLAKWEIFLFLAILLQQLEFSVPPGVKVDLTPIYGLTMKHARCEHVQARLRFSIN

Structure (SMILES): CCO/N=C(\C(=O)N[C@@H]1C(=O)N2C(C(=O)[O-])=C(Sc3nc(-c4cc[n+](C)cc4)cs3)CS[C@H]12)c1nsc(NP(=O)(O)O)n1 [Ceftaroline fosamil, (6R,7R)-7-{(2Z)-2-(ethoxyimino)-2-[5-(phosphonoamino)-1,2,4-thiadiazol-3-yl]acetamido}-3-{[4-(1-methylpyridin-1-ium-4-yl)-1,3-thiazol-2-yl]sulfanyl}-8-oxo-5-thia-1-azabicyclo[4.2.0]oct-2-ene-2-carboxylate]
solubility (Aqueous solubility): more than 200 mg per ml
conversion of prodrug in plasma [1]: rapidly converted into bioactive ceftaroline in plasma
inhibition of CYP1A1 (CYP1A1): neither ceftaroline fosamil nor ceftaroline inhibits
inhibition of CYP1A2 (CYP1A2 [2]): neither ceftaroline fosamil nor ceftaroline inhibits
inhibition of CYP2A6 (CYP2A6): neither ceftaroline fosamil nor ceftaroline inhibits
inhibition of CYP2B6 (CYP2B6 [3]): neither ceftaroline fosamil nor ceftaroline inhibits
inhibition of CYP2C8 (CYP2C8 [4]): neither ceftaroline fosamil nor ceftaroline inhibits
inhibition of CYP2C9 (CYP2C9 [5]): neither ceftaroline fosamil nor ceftaroline inhibits
inhibition of CYP2C19 (CYP2C19 [6]): neither ceftaroline fosamil nor ceftaroline inhibits
inhibition of CYP2D6 (CYP2D6): neither ceftaroline fosamil nor ceftaroline inhibits
inhibition of CYP2E1 (CYP2E1): neither ceftaroline fosamil nor ceftaroline inhibits
inhibition of CYP3A4 (CYP3A4): neither ceftaroline fosamil nor ceftaroline inhibits
induction of CYP2B6 (CYP2B6 [7]): not inducers
induction of CYP2C9 (CYP2C9 [8]): not inducers
induction of CYP3A4/5 (CYP3A4/5): not inducers
Treatment Difference (2-sided 95% CI) ([9]; CE): 0.1 (−4.4., 4.5)
Treatment Difference (2-sided 95% CI) ([9]; MITT): −0.4 (−5.8, 5.0)
Treatment Difference in clinical cure rate at TOC ([10]; CE): 6.7 (1.6, 11.8) %
Treatment Difference in clinical cure rate at TOC ([10]; MITTE): 6.0 (1.4, 10.7) %
Treatment Difference in clinical cure rate at TOC ([11]; CE): 8.4 (1.4, 15.4) %
Treatment Difference in clinical cure rate at TOC ([11]; MITTE): 6.2 (−0.2, 12.6) %
Treatment Difference in clinical cure rate at TOC ([12]; CE): 4.9 (−2.5, 12.5) %
Treatment Difference in clinical cure rate at TOC ([12]; MITTE): 5.9 (−1.0, 12.7) %
highest incidence of any adverse reaction [13]: ≤ 5%
hypersensitivity leading to discontinuation [13]: 0.3%
induction of CYP1A2 (CYP1A2 [14]): not inducers
induction of CYP2C8 (CYP2C8 [15]): not inducers
induction of CYP2C19 (CYP2C19 [16]): not inducers
Clinical Cure Rate by Infecting Pathogen [17]: 16/16 (100%)

Structure (SMILES): CO/N=C(\C(=O)N[C@@H]1C(=O)N2C(C(=O)O)=C(CSc3nc(=O)c(=O)[nH]n3C)CS[C@H]12)c1csc(N)n1 [Ceftriaxone, reference compound]
Per-subject Clinical Cure Rate at the EOT Visit ([12]; MITTE population, Example 4): 215 (78.8) %
Favorable Microbiological Outcome at the TOC Visit ([12]; mMITTE population, Example 4): 72 (81.8) %
Clinical Cure Rate by Infecting Pathogen [17]: 15/17 (88.2%)
TEAEs leading to premature discontinuation from study drug administration [18]: 1.3%
any study-drug-related TEAEs, subjects [18]: 13.7%
study-drug-related TEAE: headache [18]: 1.0%
Early withdrawal from study, reason Adverse Event ([18]; MITTE population): 7 (2.6) %
Any AE (TEAE), subjects ([18]; Safety population): 145 (47.2) %
COPD, subjects ([18]; Safety population): 5 (1.6) %
Diarrhea, subjects ([18]; Safety population): 9 (2.9) %
Headache, subjects ([18]; Safety population): 5 (1.6) %
Hypertension, subjects ([18]; Safety population): 8 (2.6) %
Hypokalemia, subjects ([18]; Safety population): 5 (1.6) %
Insomnia, subjects ([18]; Safety population): 8 (2.6) %
Nausea, subjects ([18]; Safety population): 6 (2.0) %
Phlebitis, subjects ([18]; Safety population): 8 (2.6) %
Pleural effusion, subjects ([18]; Safety population): 7 (2.3) %
Pneumonia, subjects ([18]; Safety population): 4 (1.3) %
Any AE (TEAE), subjects [18, 20]: 47.2%
TEAEs leading to premature discontinuation from study drug administration [19]: 3.9%
subjects with SAEs considered possibly or probably related to study drug [19]: 5 subjects
Early withdrawal from study, reason Adverse Event ([19]; MITTE population): 7 (2.3) %
Any AE (TEAE), subjects ([19]; Safety population): 136 (44.2) %
Constipation, subjects ([19]; Safety population): 5 (1.6) %
Diarrhea, subjects ([19]; Safety population): 7 (2.3) %
Headache, subjects ([19]; Safety population): 4 (1.3) %
Hypertension, subjects ([19]; Safety population): 8 (2.6) %
Hypokalemia, subjects ([19]; Safety population): 10 (3.2) %
Insomnia, subjects ([19]; Safety population): 6 (1.9) %
Nausea, subjects ([19]; Safety population): 8 (2.6) %
Phlebitis, subjects ([19]; Safety population): 5 (1.6) %
Any AE (TEAE), subjects [19, 20]: 44.2%
Diarrhea, subjects [19, 20]: 2.3%
Headache, subjects [19, 20]: 1.3%

induction of CYP2B6 (CYP2B6 [7]): not inducers
induction of CYP2C9 (CYP2C9 [8]): not inducers
induction of CYP3A4/5 (CYP3A4/5): not inducers
induction of CYP1A2 (CYP1A2 [14]): not inducers
induction of CYP2C8 (CYP2C8 [15]): not inducers
induction of CYP2C19 (CYP2C19 [16]): not inducers
Structure (SMILES): CCO/N=C(\C(=O)N[C@H](C(=O)[O-])[C@@H]1NC(C(=O)[O-])=C(Sc2nc(-c3cc[n+](C)cc3)cs2)CS1)c1nsc(N)n1.[H+] [ceftaroline M-1]
